Literature values, collected in US20050250118A1 (priority 2003, published 2005).

Key:
AD patients [1] = settings: galantamine therapy
AD patients [2] = settings: presence of the ApoE4 polymorphism

COc1ccc2c3c1O[C@H]1C[C@@H](O)C=C[C@@]31CCN(C)C2 [galantamine]
most common side effects (AD patients [1]): nausea, vomiting, diarrhea, dizziness and anorexia

Nc1c2c(nc3ccccc13)CCCC2 [tacrine]
response to treatment with ApoE4 allele present (AD patients [2]): reduced response to treatment
